Broadly, the Kd is a measure of binding affinity in units of concentration. Higher therefore signals lower affinity.

Sequence of PIKFYVE (Q9Y2I7 whole entry): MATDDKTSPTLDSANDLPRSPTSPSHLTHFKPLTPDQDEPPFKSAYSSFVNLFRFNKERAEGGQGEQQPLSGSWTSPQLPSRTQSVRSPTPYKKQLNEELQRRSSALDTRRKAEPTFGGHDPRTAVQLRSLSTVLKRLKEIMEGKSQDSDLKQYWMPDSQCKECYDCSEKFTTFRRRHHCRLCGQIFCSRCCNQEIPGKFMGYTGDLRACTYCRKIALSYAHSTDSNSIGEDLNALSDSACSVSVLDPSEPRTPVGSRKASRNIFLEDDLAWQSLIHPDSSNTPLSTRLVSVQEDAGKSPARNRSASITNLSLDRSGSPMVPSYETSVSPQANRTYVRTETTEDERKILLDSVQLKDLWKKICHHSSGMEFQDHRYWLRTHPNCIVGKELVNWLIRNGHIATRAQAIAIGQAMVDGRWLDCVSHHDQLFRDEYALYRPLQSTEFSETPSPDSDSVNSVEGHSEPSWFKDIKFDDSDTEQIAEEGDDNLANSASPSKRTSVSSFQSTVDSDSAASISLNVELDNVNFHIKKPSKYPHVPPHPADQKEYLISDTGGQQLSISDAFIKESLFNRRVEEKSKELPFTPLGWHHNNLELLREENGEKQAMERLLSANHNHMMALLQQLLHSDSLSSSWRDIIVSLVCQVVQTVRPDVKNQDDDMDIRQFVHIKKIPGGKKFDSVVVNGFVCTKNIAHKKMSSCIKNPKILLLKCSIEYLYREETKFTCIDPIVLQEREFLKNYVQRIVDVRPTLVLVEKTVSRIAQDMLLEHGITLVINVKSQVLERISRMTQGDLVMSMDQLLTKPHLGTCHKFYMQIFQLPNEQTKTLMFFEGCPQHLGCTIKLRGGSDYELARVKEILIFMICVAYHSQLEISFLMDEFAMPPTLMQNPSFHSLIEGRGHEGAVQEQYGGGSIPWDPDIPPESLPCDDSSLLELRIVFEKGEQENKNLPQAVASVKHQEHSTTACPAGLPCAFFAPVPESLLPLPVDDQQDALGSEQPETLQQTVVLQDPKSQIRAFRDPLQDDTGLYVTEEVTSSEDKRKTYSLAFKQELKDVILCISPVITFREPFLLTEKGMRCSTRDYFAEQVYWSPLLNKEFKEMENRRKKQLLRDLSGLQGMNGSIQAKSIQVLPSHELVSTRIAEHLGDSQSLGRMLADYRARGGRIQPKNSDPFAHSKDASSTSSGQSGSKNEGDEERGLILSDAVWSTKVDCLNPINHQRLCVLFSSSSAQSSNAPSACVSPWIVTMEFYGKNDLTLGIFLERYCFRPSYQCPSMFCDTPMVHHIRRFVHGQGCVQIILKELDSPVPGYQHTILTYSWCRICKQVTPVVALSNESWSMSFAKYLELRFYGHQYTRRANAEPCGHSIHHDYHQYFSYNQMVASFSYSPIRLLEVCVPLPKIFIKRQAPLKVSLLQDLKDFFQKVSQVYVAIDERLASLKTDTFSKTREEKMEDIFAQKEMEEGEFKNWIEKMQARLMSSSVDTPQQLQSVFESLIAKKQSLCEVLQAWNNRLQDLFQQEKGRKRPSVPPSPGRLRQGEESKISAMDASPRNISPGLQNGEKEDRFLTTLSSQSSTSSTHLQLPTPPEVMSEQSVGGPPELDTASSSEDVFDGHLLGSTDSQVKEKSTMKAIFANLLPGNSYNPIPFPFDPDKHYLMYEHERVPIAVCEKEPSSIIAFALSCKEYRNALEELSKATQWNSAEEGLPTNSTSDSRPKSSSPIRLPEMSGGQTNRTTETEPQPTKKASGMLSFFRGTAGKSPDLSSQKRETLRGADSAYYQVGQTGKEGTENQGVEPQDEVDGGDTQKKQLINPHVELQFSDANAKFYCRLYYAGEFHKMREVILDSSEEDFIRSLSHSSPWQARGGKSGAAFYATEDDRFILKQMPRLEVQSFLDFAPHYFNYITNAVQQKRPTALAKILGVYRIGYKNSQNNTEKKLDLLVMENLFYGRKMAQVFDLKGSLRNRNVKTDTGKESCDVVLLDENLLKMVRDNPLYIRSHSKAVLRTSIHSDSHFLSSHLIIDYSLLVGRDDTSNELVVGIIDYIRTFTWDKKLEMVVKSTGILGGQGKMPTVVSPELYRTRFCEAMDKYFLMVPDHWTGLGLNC

The first assay addresses PIKFYVE (Homo sapiens (Human), UniProt Q9Y2I7). The assay can be described thus: KINOMEScan Kinase Assay, PIKFYVE binding.
Details: not given
In turn, `[O-][n+]1ccc(-c2cc3nc(-n4ccc(-c5cccc(Br)c5)n4)cc(N4CCOCC4)n3n2)cc1` [Ex. 18, 4-(5-(3-(3-bromophenyl)-1H-pyrazol-1-yl)-7-morpholinopyrazolo[1,5-a]pyrimidin-2-yl)pyridine 1-oxide] displayed an equilibrium dissociation constant (Kd) of less than 1 nM.

In turn, `Cc1cccc(-c2ccn(-c3cc(N4CCOCC4)n4nc(Br)cc4n3)n2)c1` [Ex. 24, 4-(2-bromo-5-(3-(m-tolyl)-1H-pyrazol-1-yl)pyrazolo[1,5-a]pyrimidin-7-yl)morpholine] gave a Kd of 1 to 5 nM.

`Cc1cccc(-c2ccn(-c3cc(N4CCOCC4)n4nc(-c5ccnnc5)cc4n3)n2)c1` [Ex. 25, 4-(2-(pyridazin-4-yl)-5-(3-(m-tolyl)-1H-pyrazol-1-yl)pyrazolo[1,5-a]pyrimidin-7-yl)morpholine] came in with a Kd of less than 1 nM.

With `Cc1cccc(-c2ccn(-c3cc(N4CCOCC4)n4nc(C5=CCNCC5)cc4n3)n2)c1` [Ex. 28, 4-(2-(1,2,3,6-tetrahydropyridin-4-yl)-5-(3-(m-tolyl)-1H-pyrazol-1-yl)pyrazolo[1,5-a]pyrimidin-7-yl)morpholine], the dissociation constant Kd fell in the range of 1 to 5 nM.

The same assay, now with this note: KINOMEScan Kinase Assay.
Turning to `COc1cccc(-c2ccn(-c3cc(N4CCO[C@H](C)C4)n4nc(-c5ccncc5)cc4n3)n2)c1` [Ex. 11], the Kd was 5 to 10 nM.

On to `COc1cccc(-c2ccn(-c3cc(N4CCOC[C@H]4C)n4nc(-c5ccncc5)cc4n3)n2)c1` [Ex. 14], for which the Kd is 5 to 10 nM.

As to `COc1cccc(-c2ccn(-c3cc(N4CCOCC4)n4nc(-c5ccncc5)cc4n3)n2)c1` [Ex. 15], the dissociation constant Kd was in the range of 1 to 5 nM.

`Cc1cccc(-c2ccn(-c3cc(N4CCOCC4)n4nc(-c5ccncc5)cc4n3)n2)c1` [Ex. 17] returned an equilibrium dissociation constant (Kd) of less than 1 nM.

The same assay, now with this note: KINOMEScan Kinase Assay; 50 nM compound.
In the case of “4-(2-(pyridin-4-yl)-5-(3-(3-(trifluoromethyl)phenyl)-1H-pyrazol-1-yl)pyrazolo[1,5-a]pyrimidin-7-yl)morpholine [Ex. 21]”, the “% Inhib. (50 nM)” value is on record as “++ (>50%-80%)”.

With `COc1cccc(-c2ccn(-c3cc(N4CCO[C@@H](C)C4)n4nc(-c5ccncc5)cc4n3)n2)c1` [Ex. 12], the “% Inhib. (50 nM)” value is on record as “+++ (>80%-100%)”.

With `COc1cccc(-c2ccn(-c3cc(N4CCOC[C@@H]4C)n4nc(-c5ccncc5)cc4n3)n2)c1` [Ex. 13], the “% Inhib. (50 nM)” value was “+++ (>80%-100%)”.

Consider `Cc1cccc(-c2ccn(-c3cc(N4CCOCC4)n4nc(C5=CC[N+](C)(C)CC5)cc4n3)n2)c1` [Ex. 29, 1,1-dimethyl-4-(7-morpholino-5-(3-(m-tolyl)-1H-pyrazol-1-yl)pyrazolo[1,5-a]pyrimidin-2-yl)-1,2,3,6-tetrahydropyridin-1-ium], for which the “% Inhib. (50 nM)” value is given as “+++ (>80%-100%)”.

Staying with this assay, now noted: read-out: % Inhib. (50 nM).
For the compound `FC(F)(F)Oc1cccc(-c2ccn(-c3cc(N4CCOCC4)n4nc(-c5ccncc5)cc4n3)n2)c1` [Ex. 22, 4-(2-(pyridin-4-yl)-5-(3-(3-(trifluoromethoxy)phenyl)-1H-pyrazol-1-yl)pyrazolo[1,5-a]pyrimidin-7-yl)morpholine], the inhibition at 0.05 µM is less than 50%.

`CCOc1cccc(-c2ccn(-c3cc(N4CCOCC4)n4nc(-c5ccncc5)cc4n3)n2)c1` [Ex. 23, 4-(5-(3-(3-ethoxyphenyl)-1H-pyrazol-1-yl)-2-(pyridin-4-yl)pyrazolo[1,5-a]pyrimidin-7-yl)morpholine]: the inhibition at 0.05 µM is less than 50%.

Consider `Cc1cccc(-c2ccn(-c3cc(N4CCOCC4)n4nc(C5=CCN(C(=O)OC(C)(C)C)CC5)cc4n3)n2)c1` [Ex. 26, tert-butyl4-(7-morpholino-5-(3-(m-tolyl)-1H-pyrazol-1-yl)pyrazolo[1,5-a]pyrimidin-2-yl)-3,6-dihydropyridine-1(2H)-carboxylate], for which the inhibition at 0.05 µM lay in the range of 80 to 100%.

Turning to `C=Cc1cc2nc(-n3ccc(-c4cccc(C)c4)n3)cc(N3CCOCC3)n2n1` [Ex. 27, 4-(5-(3-(m-tolyl)-1H-pyrazol-1-yl)-2-vinylpyrazolo[1,5-a]pyrimidin-7-yl)morpholine], the inhibition at 0.05 µM lay in the range of 80 to 100%.

(Values after patent publication US20240018151A1, “NOVEL INHIBITORS OF PIKFYVE AND METHODS USING SAME” (priority 2020, published 2024).)
